What was measured:
[1] = as stated in US 2006/0142283 / WO 2005/035530; cited from earlier work
[2] = electrostatic character of the crystals; format: physicochemical; details: contrary to the known crystalline Form II
[3] = hygroscopicity of the isolated solid; format: physicochemical; details: amorphous solid

CC(=O)NC[C@H]1CN(c2ccc(N3CCOCC3)c(F)c2)C(=O)O1 [Form III, Linezolid Form III]
electrostatic character and compactness compared with Form II (in words) [1]: more compact and less electrostatic than the Form II

CC(=O)NC[C@H]1CN(c2ccc(N3CCOCC3)c(F)c2)C(=O)O1 [linezolid hemihydrate, Linezolid Hemihydrate]
electrostatic character (in words) [2]: not electrostatic

Linezolid Sulfate
hygroscopicity (in words) [3]: hygroscopic

Source: patent US7989618B2, “Linezolid crystalline hydrate form and linezolid salts” (DiPharma Francis s.r.l., priority 2007, dated 2011)
